Reference: ChEMBL document CHEMBL3988442, “University of Dundee, Small-Polar-MMV Screening Library” (2021)
pIC50: −log10 of the molar value. Values joined by “and” are separate entries in the source; they are usually repeats but may differ in a detail not shown here. Equal entries are not always repeated.

Each compound was assayed against Polyketide synthase Pks13 (Mycobacterium tuberculosis (strain ATCC 25618 / H37Rv), UniProt I6X8D2) (assay: Mycobacterium tuberculosis Polyketide synthase 13 Thioesterase (PKS13)).
Polyketide synthase Pks13, sequence (I6X8D2 whole entry): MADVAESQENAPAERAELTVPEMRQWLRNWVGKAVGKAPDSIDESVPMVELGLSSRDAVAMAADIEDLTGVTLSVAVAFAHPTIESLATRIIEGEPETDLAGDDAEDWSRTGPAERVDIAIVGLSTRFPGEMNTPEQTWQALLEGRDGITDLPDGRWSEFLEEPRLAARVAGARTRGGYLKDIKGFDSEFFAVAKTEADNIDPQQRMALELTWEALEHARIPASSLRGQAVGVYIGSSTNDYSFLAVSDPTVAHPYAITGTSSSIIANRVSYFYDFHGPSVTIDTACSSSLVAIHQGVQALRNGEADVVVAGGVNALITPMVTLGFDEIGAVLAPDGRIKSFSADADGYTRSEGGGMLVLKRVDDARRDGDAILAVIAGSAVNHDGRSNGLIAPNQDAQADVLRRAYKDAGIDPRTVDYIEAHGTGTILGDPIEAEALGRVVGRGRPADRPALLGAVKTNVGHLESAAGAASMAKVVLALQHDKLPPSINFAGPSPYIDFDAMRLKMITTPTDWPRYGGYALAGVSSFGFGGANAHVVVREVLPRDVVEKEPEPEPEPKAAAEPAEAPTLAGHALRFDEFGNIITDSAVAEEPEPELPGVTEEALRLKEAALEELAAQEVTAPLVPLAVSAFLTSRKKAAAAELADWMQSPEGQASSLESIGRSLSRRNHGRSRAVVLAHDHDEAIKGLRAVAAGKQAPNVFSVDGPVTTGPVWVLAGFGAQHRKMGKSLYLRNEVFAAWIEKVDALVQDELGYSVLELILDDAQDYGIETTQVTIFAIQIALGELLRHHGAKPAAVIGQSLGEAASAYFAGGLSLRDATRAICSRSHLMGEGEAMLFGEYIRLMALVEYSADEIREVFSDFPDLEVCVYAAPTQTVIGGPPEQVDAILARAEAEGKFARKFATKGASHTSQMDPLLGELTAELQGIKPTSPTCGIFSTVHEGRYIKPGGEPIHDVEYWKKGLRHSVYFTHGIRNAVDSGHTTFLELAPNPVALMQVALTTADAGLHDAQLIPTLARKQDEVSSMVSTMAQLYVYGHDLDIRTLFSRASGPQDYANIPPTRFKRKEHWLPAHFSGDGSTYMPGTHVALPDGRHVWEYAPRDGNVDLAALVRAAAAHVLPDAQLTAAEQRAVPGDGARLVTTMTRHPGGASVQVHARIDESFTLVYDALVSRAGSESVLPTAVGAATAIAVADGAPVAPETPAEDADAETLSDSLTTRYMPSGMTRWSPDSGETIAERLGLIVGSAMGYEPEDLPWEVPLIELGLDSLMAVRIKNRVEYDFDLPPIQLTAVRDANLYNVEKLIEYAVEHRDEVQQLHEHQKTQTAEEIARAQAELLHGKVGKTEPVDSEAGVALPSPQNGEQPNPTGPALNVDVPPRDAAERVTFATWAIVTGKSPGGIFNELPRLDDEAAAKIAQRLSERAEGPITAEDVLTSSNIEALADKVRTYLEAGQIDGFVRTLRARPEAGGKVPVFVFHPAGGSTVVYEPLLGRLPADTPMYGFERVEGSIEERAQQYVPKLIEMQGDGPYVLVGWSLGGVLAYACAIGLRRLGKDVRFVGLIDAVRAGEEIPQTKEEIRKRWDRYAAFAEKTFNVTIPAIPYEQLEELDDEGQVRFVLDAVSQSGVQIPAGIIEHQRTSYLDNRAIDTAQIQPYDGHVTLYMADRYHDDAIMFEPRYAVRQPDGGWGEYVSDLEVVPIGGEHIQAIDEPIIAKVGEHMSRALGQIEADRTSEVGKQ
Format: functional
With `Cc1cc2c(N)nc(=O)n(CC(=O)Nc3ccccc3)c2s1` the pIC50 was under 4.00. Compound `CCOc1ccc2nc(CN3CCOC(CN)C3)ccc2c1` (stereo not given) has a pIC50 of under 4.00. With `CC(NC(=O)CN(C)S(C)(=O)=O)c1nnc2n1CCCCC2` (stereo not given) the pIC50 was under 4.00. `Cn1cc(-c2ncc3c(c2C(=O)O)CCN(CC2CCOC2)C3)cn1` (stereo not given) was tested, and the pIC50 was under 4.00. For `CCN1CC(C(=O)N2CCN(c3nsc4ccccc34)CC2)CCC1=O` (stereo not given), the pIC50 was 4.04 and 4.14. `C[C@H](NC(=O)c1cccc(CCC(C)(C)O)c1)C(N)=O` gave a pIC50 of under 4.00. `Cc1n[nH]c(C)c1CCN(C)c1ccc(-c2nc(C3CC3)no2)cn1` gave a pIC50 of under 4.00. `Cc1ccc(-c2cc(C(=O)NCCCc3csc(N)n3)[nH]n2)s1` was tested, and the pIC50 was 5.03 and 4.77. `Cc1cnn(CC(C)NCC(=O)NCCOc2ccccc2)c1` (stereo not given) showed a pIC50 of under 4.00. `N#Cc1ccc(C(=O)O)nc1/C=C/c1cccc(Cl)c1` was tested, and the pIC50 was under 4.00. `Cc1csc2ncc(-c3ccnc(N4CCCC4)n3)c(=O)n12` was tested, and the pIC50 was under 4.00. `CSCc1ccc(N2CCC(C(O)Cc3ccccc3)CC2)nc1` (stereo not given) gave a pIC50 of under 4.00. For `Cc1cccc(-c2ccc(C(=O)NCC(C)(C)C(N)=O)c(=O)[nH]2)c1`, the pIC50 was 4.60 and 4.50. `Cc1cc(C)n(-c2nc(C(=O)NCCN3CCC(C)CC3)cs2)n1` gave a pIC50 of under 4.00. With `CCCn1nnc(NCc2ccc(-c3ccc(Br)cc3)o2)n1` the pIC50 was 4.53 and < 4.00. In the case of `O=C(OCC1CCN(c2ccccc2)C1)c1cscn1` (stereo not given), the pIC50 was 4.52 and 5.38. With `CCC(CC)C(=O)n1ccn(S(=O)(=O)c2ccc(C)cc2)c1=O` the pIC50 was 4.70 and 4.71. In the case of `c1ccc(CCCN2CC[C@H](c3nnc(-c4ccccc4)o3)C2)cc1`, the pIC50 was under 4.00. With `CCc1ccc(C(O)CN2CCN(c3cccc(OC)c3)CC2)cc1` (stereo not given) the pIC50 was 4.63 and 4.56. `Cc1nc(CN(C)C(=O)NC(C)c2ccc3c(c2)OCCO3)cs1` (stereo not given) was tested, and the pIC50 was under 4.00. `CC(C)OCc1ncn2c1CN(Cc1nccs1)CCC2` gave a pIC50 of under 4.00. In the case of `CCc1nc2n(n1)CC(NCc1ncc(-c3ccccc3)o1)CC2` (stereo not given), the pIC50 was under 4.00. Compound `Nc1cc(C(=O)NCC2CCN(Cc3ccncc3F)C2)ccn1` (stereo not given) has a pIC50 of under 4.00. For `O=C(O)[C@]12CCCN(Cc3ccccn3)[C@@H]1CCN(c1cnccn1)C2`, the pIC50 was under 4.00. In the case of `O=C(Cc1cccc(F)c1)N1CCc2ncnc(NC3CC3)c2CC1`, the pIC50 was under 4.00. With `Cc1cn2c(=O)c(-c3ccnc(N4CCC[C@@H]4CO)n3)cnc2s1` the pIC50 was under 4.00. In the case of `NC(=O)CSc1nccc(-c2ccc3c(c2)OCO3)n1`, the pIC50 was 4.70 and 4.72. For `Cc1nc(CNC(=O)N2CCN(c3ccc(Cl)cn3)CC2)sc1C`, the pIC50 was 4.37 and 4.50. Compound `CCOCCN1CCN([C@@H]2c3ccccc3C3(CCNCC3)[C@H]2O)CC1` has a pIC50 of under 4.00. For `Cn1ncc2c1CN(Cc1cccnc1)CC2COCC1CC1` (stereo not given), the pIC50 was under 4.00. With `COC(=O)C(C)(C)NC(=O)c1cc2sc(N(C)C)nc2s1` the pIC50 was 4.66 and 4.97. With `Cc1cc(C)n(-c2cncc(NCCC(=O)NC(C)C)n2)n1` the pIC50 was 4.62 and 4.82. In the case of `N#Cc1cccc(N2CCCC(CO)(CCOc3ccccc3)C2)n1` (stereo not given), the pIC50 was 4.46 and 5.18. With `CC(O)CN1CCC(CNCc2cccc(C(N)=O)c2)CC1` (stereo not given) the pIC50 was under 4.00. Work on `O=C(c1cnccn1)N1C[C@@H]2CC[C@H](C1)N(S(=O)(=O)c1cccnc1)C2` yielded a pIC50 of under 4.00. `Cc1cc(C2CCCCN2C(=O)c2ccsc2)nc2nccn12` (stereo not given) showed a pIC50 of under 4.00. For `COc1ccc2nc(C3CC3)cc(C(=O)NCc3noc(C)n3)c2c1`, the pIC50 was 4.67. `O=c1[nH]c(NC2CCCC2)nc2nccc(-c3cccs3)c12` was tested, and the pIC50 was 5.08 and 4.66. For `Cc1cc(-c2cnn(CCNC(=O)c3snnc3C)c2C2CC2)on1`, the pIC50 was under 4.00. `CCc1cccc(C)c1NC(=O)C1CC(=O)N(Cc2ccccn2)C1` (stereo not given) showed a pIC50 of under 4.00. With `CCCNC(=O)CCNc1cncc(-n2nc(C)cc2C)n1` the pIC50 was 4.55 and 4.66. In the case of `CCc1cccc(NS(=O)(=O)c2cc(C)c(C(=O)O)s2)c1`, the pIC50 was 4.78 and 4.94. In the case of `CCN(Cc1nc2c(cnn2C)c(=O)[nH]1)c1ccccc1`, the pIC50 was under 4.00. `Cn1ccc(C(=O)NCc2cccc(NC(=O)C3CCC3)c2)cc1=O` showed a pIC50 of under 4.00. In the case of `Cc1ccc2cc(CNCCCN3CCOCC3)c(=O)[nH]c2c1C`, the pIC50 was under 4.00. `O=C1CC(c2ccc(F)c(F)c2)c2snc(C(=O)O)c2N1` (stereo not given) was tested, and the pIC50 was under 4.00. Work on `CCC[C@H]1CN(S(C)(=O)=O)C[C@@H]1NC(=O)c1ccc(COC)cc1` yielded a pIC50 of under 4.00. With `O=C(c1cc2cc(F)ccc2[nH]1)N1CCC(Nc2ccc(F)cc2)CC1` the pIC50 was < 4.00 and 4.90. `CC(C)NC(=O)[C@@H]1CN(C(=O)C2CC2)C[C@]12Cc1ccccc1C(=O)N2` showed a pIC50 of under 4.00. `Cc1cccc(C(C)CNS(=O)(=O)CCCC#N)c1` (stereo not given) gave a pIC50 of under 4.00. For `CCC(C)Nc1ccc(-c2nc(-c3cccc(OC)c3OC)no2)cn1` (stereo not given), the pIC50 was 4.54 and 4.86. `COC(=O)c1ccc(NC2CCN(CC(F)(F)F)C2=O)cc1C` (stereo not given) gave a pIC50 of under 4.00. With `Cn1ccc(C(=O)NC2CCN(c3ncccn3)CC2)cc1=O` the pIC50 was under 4.00. In the case of `COCCc1noc(-c2cn(CCc3ccccc3)nn2)n1`, the pIC50 was 4.68 and 5.06. With `Cc1cnn(CC2CCCN2Cc2cc(=O)n3cc(C)ccc3n2)c1` (stereo not given) the pIC50 was < 4.00 and 4.02. With `COc1cccc(C(=O)N2CCc3c(nc(N)[nH]c3=O)C2)c1C` the pIC50 was under 4.00. In the case of `NC(=O)CCSc1ccccc1NCc1ccc(Cl)s1`, the pIC50 was 5.16 and 5.17. For `CC(C)(C)c1nc(CN(CCC2CCCCC2)CC(N)=O)no1`, the pIC50 was under 4.00. With `Cc1ccc2nc(C(=O)N(C)[C@@H]3CC[C@@H](N4CCCC4)[C@@H]3O)cn2c1` the pIC50 was under 4.00. For `CCn1cc(-c2cc(C(F)F)n3nc(CC(=O)O)nc3n2)cn1`, the pIC50 was 4.80 and 4.78.
